Assay [1] addresses T1, full-length beta-Catenin (Uniprot ID P35222) (Homo sapiens, UniProt P35222).
T1 construct: 10 nM full-length beta-Catenin (Uniprot ID P35222)
T1 sequence (P35222 1-781): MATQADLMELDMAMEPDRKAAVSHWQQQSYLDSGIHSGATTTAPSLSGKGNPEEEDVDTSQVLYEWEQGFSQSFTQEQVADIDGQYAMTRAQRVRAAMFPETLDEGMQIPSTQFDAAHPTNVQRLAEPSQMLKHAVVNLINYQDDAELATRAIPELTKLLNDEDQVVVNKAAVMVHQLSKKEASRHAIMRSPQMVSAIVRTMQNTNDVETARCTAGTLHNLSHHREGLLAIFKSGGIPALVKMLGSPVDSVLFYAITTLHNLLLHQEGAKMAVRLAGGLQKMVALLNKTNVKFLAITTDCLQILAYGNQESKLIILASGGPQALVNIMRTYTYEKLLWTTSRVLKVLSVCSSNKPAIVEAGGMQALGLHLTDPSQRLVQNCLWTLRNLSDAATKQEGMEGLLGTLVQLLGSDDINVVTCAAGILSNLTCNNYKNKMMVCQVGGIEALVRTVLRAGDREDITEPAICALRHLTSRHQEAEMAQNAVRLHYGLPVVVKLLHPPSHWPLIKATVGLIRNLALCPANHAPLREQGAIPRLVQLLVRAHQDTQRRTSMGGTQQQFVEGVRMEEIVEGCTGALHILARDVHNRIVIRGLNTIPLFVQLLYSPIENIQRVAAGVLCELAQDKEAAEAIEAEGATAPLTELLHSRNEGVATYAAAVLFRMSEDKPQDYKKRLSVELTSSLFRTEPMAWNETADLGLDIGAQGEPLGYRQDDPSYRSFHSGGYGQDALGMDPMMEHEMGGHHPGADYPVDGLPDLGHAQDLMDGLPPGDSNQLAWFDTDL
Briefly: Fluorescence polarization IC50 (beta-catenin / 5FAM-TCF4 10-53 competition). The format is binding. For orientation: Polarisation of emitted light reports the rotation of a fluorescent probe.

In assay [2] the target is T2, beta-catenin/TCF4 engagement (Homo sapiens, UniProt P35222).
T2 construct: expressed in transfected cells; host or cells: HEK293
T2 sequence (P35222 1-781): T1 sequence (P35222 1-781)
Briefly: Nano-BRET target engagement assay (B-cat-Halo & TCF4-Luc in HEK293 cells). The format is cell-based. In general terms: In BRET a luciferase serves as donor, and the signal depends on an acceptor being close.

[3] abbreviates: fluorescence polarization, read-out: beta-Catenin FP IC50.
Where [4] appears, read: absolute IC50, read-out: NanoBRET Abs IC50.
The mark [5] stands for this setting: beta-Catenin FP IC50, fluorescence polarization.
The mark [6] stands for this setting: NanoBRET Abs IC50, absolute IC50.
Where [7] appears, read: fluorescence polarization, beta-catenin, read-out: FP EC50.

Read-outs that look alike come from different tables or passages of the source. A value given as a limit tells only on which side of the number the result lay.

The results in this text go back to patent US20240116985A1, “STAPLED PEPTIDES AND METHODS THEREOF” (priority 2020, published 2024).

As to `CCCC[C@@H]1NC(=O)[C@H](Cc2ccccc2)NC(=O)[C@H](C)NC(=O)[C@H](C)NC(=O)[C@H](Cc2cccc(C(=O)O)c2)NC(=O)[C@H](CC(=O)O)NC(=O)C2(CCCC=CCCCOC(=O)N3CC[C@@](C(=O)N[C@@H](Cc4ccsc4)C(=O)N[C@@H](Cc4csc5ccccc45)C(=O)N[C@@H](CCC(N)=O)C(N)=O)(C3)NC1=O)CCCC=CC[C@]1(CCCN1C(C)=O)C(=O)N[C@@H](CC(=O)O)C(=O)N[C@@H](CC(C)C)C(=O)N2` (stereo partly drawn) [I-1407, Ac-PL3-Asp-Leu-B5-Asp-3COOHF-Ala-Ala-Phe-nLeu-PyrS2-3Thi-BztA-Gln-NH2], the IC50 was determined as 5 nM in assay [1] (setting [3]) and 4200 nM in assay [2] (setting [4]).
The like results for `CCCC[C@@H]1NC(=O)[C@H](CC(=O)O)NC(=O)[C@]2(CC=CCCCC3(CCCC=CCCCOC(=O)N4CC[C@@](C(=O)N[C@@H](Cc5ccsc5)C(=O)N[C@@H](Cc5csc6ccccc56)C(=O)N[C@@H](CCC(N)=O)C(N)=O)(C4)NC(=O)[C@H](CCCC)NC(=O)[C@H](Cc4ccccc4)NC(=O)[C@H](C)NC(=O)[C@H](C)NC(=O)[C@H](Cc4cccc(C(=O)O)c4)NC(=O)[C@H](CC(=O)O)NC3=O)NC1=O)CCCN2C(C)=O` (stereo partly drawn) [I-1408, Ac-PL3-Asp-nLeu-B5-Asp-3COOHF-Ala-Ala-Phe-nLeu-PyrS2-3Thi-BztA-Gln-NH2] were, in that order, 33 nM and 6000 nM.
For the compound `CC(=O)N1CCC[C@]12CC=CCCCC1(CCCC=CCCCOC(=O)N3CC[C@@](C(=O)N[C@@H](Cc4ccsc4)C(=O)N[C@@H](Cc4csc5ccccc45)C(=O)N[C@@H](CC(C)C)C(N)=O)(C3)NC(=O)[C@H](CC(C)C)NC(=O)[C@H](Cc3ccccc3)NC(=O)[C@H](C)NC(=O)[C@H](C)NC(=O)[C@H](CC(=O)O)NC(=O)[C@H](CC(=O)O)NC1=O)NC(=O)[C@H](CC(C)(C)C)NC(=O)[C@H](CC(=O)O)NC2=O` (stereo partly drawn) [I-1409, Ac-PL3-Asp-Npg-B5-Asp-Asp-Ala-Ala-Phe-Leu-PyrS2-3Thi-BztA-Leu-NH2], the IC50 in assay [1] (setting [3]) was found to be 74 nM; in assay [2] (setting [4]), 24000 nM.
On to `CC(=O)N1CCC[C@]12CC=CCCCC1(CCCC=CCCCOC(=O)N3CC[C@@](C(=O)N[C@@H](Cc4ccsc4)C(=O)N[C@@H](Cc4csc5ccccc45)C(=O)N[C@@H](CC(C)C)C(N)=O)(C3)NC(=O)[C@H](CC(C)C)NC(=O)[C@H](Cc3ccccc3)NC(=O)[C@H](C)NC(=O)[C@H](C)NC(=O)[C@H](CC(=O)O)NC(=O)[C@H](CC(=O)O)NC1=O)NC(=O)[C@H](CC(C)C)NC(=O)[C@H](CC(=O)O)NC2=O` (stereo partly drawn) [I-1410, Ac-PL3-Asp-Leu-B5-Asp-Asp-Ala-Ala-Phe-Leu-PyrS2-3Thi-BztA-Leu-NH2], for which the IC50 is 80 nM in assay [1] (setting [5]) and 29300 nM in assay [2] (setting [6]).
For the compound `CCCC[C@@H]1NC(=O)[C@H](CC(=O)O)NC(=O)[C@]2(CC=CCCCC3(CCCC=CCCCOC(=O)N4CC[C@@](C(=O)N[C@@H](Cc5ccsc5)C(=O)N[C@@H](Cc5csc6ccccc56)C(=O)N[C@@H](CC(C)C)C(N)=O)(C4)NC(=O)[C@H](CC(C)C)NC(=O)[C@H](Cc4ccccc4)NC(=O)[C@H](C)NC(=O)[C@H](C)NC(=O)[C@H](CC(=O)O)NC(=O)[C@H](CC(=O)O)NC3=O)NC1=O)CCCN2C(C)=O` (stereo partly drawn) [I-1411, Ac-PL3-Asp-nLeu-B5-Asp-Asp-Ala-Ala-Phe-Leu-PyrS2-3Thi-BztA-Leu-NH2], the figures for the IC50 in assay [1] (setting [7]), in assay [1] (setting [3]) and in assay [2] (setting [4]) were 109 nM, 109 nM and 47100 nM, respectively.
With `CCCC[C@@H]1NC(=O)[C@H](CC(=O)O)NC(=O)[C@]2(CC=CCCCC3(CCCC=CCCCOC(=O)N4CC[C@@](C(=O)N[C@@H](Cc5ccsc5)C(=O)N[C@@H](Cc5csc6ccccc56)C(=O)N[C@@H](CC(C)C)C(N)=O)(C4)NC(=O)[C@H](CC(C)C)NC(=O)[C@H](Cc4ccccc4)NC(=O)[C@H](C)NC(=O)[C@H](C)NC(=O)[C@H](CC(=O)O)NC(=O)[C@H](CC(=O)O)NC3=O)NC1=O)CCCN2C(C)=O` (stereo partly drawn) [I-1412, Ac-PL3-Asp-nLeu-B5-Asp-Asp-Ala-Ala-Phe-Leu-PyrS2-3Thi-BztA-Leu-NH2], the figures for the IC50 in assay [1] (setting [7]), in assay [1] (setting [3]) and in assay [2] (setting [4]) were 79 nM, 79 nM and over 20000 nM, respectively.
Turning to `CC(=O)N1CCC[C@]12CC=CCCCC1(CCCC=CCCCOC(=O)N3CC[C@@](C(=O)N[C@@H](Cc4ccsc4)C(=O)N[C@@H](Cc4csc5ccccc45)C(=O)N[C@@H](CC(C)C)C(N)=O)(C3)NC(=O)[C@H](CC(C)C)NC(=O)[C@H](Cc3ccccc3)NC(=O)[C@H](C)NC(=O)[C@H](C)NC(=O)[C@H](CC(=O)O)NC(=O)[C@H](CC(=O)O)NC1=O)NC(=O)[C@H](CO)NC(=O)[C@H](CC(=O)O)NC2=O` (stereo partly drawn) [I-1414, Ac-PL3-Asp-Ser-B5-Asp-Asp-Ala-Ala-Phe-Leu-PyrS2-3Thi-BztA-Leu-NH2], the results for the IC50 in assay [1] (setting [5]) and in assay [2] (setting [6]) were 84 nM and over 20000 nM, respectively.
For the compound `CC(=O)N1CCC[C@]12CC=CCCCC1(CCCC=CCCCOC(=O)N3CC[C@@](C(=O)N[C@@H](Cc4ccccc4Cl)C(=O)N[C@@H](Cc4csc5ccccc45)C(=O)N[C@@H](CC(C)C)C(N)=O)(C3)NC(=O)[C@H](CC(C)C)NC(=O)[C@H](Cc3ccccc3)NC(=O)[C@H](C)NC(=O)[C@H](C)NC(=O)[C@H](CC(=O)O)NC(=O)[C@H](CC(=O)O)NC1=O)NC(=O)[C@H](CC(C)C)NC(=O)[C@H](CC(=O)O)NC2=O` (stereo partly drawn) [I-1418, Ac-PL3-Asp-Leu-B5-Asp-Asp-Ala-Ala-Phe-Leu-PyrS2-2C1F-BztA-Leu-NH2], the IC50 in assay [1] (setting [7]) was 106 nM; in assay [1] (setting [3]), 106 nM; in assay [2] (setting [4]) it was over 20000 nM.
As to `CC(=O)N1CCC[C@]12CC=CCCCC1(CCCC=CCCCOC(=O)N3CC[C@@](C(=O)N[C@@H](Cc4ccsc4)C(=O)N[C@@H](Cc4c[nH]c5ccccc45)C(=O)N[C@@H](CCC(N)=O)C(N)=O)(C3)NC(=O)[C@H](CC(C)C)NC(=O)[C@H](Cc3ccccc3)NC(=O)[C@H](C)NC(=O)[C@H](C)NC(=O)[C@H](CC(=O)O)NC(=O)[C@H](CC(=O)O)NC1=O)NC(=O)[C@H](CC(C)(C)C)NC(=O)[C@H](CC(=O)O)NC2=O` (stereo partly drawn) [I-1431, Ac-PL3-Asp-Npg-B5-Asp-Asp-Ala-Ala-Phe-Leu-PyrS2-3Thi-Trp-Gln-NH2], the IC50 is 34 nM in assay [1] (setting [7]), 44 nM in assay [1] (setting [3]) and 14600 nM in assay [2] (setting [4]).
Consider `CC(=O)N1CCC[C@]12CC=CCCCC1(CCCC=CCCCOC(=O)N3CC[C@@](C(=O)N[C@@H](Cc4ccsc4)C(=O)N[C@@H](Cc4c[nH]c5ccccc45)C(=O)N[C@@H](CO)C(N)=O)(C3)NC(=O)[C@H](CC(C)C)NC(=O)[C@H](Cc3ccccc3)NC(=O)[C@H](C)NC(=O)[C@H](C)NC(=O)[C@H](CC(=O)O)NC(=O)[C@H](CC(=O)O)NC1=O)NC(=O)[C@H](CC(C)(C)C)NC(=O)[C@H](CC(=O)O)NC2=O` (stereo partly drawn) [I-1432, Ac-PL3-Asp-Npg-B5-Asp-Asp-Ala-Ala-Phe-Leu-PyrS2-3Thi-Trp-Ser-NH2], for which the IC50 in assay [1] (setting [3]) was determined as 27 nM; in assay [2] (setting [4]), 14500 nM.
Turning to `CC(=O)N1CCC[C@]12CC=CCCCC1(CCCC=CCCCOC(=O)N3CC[C@@](C(=O)N[C@@H](Cc4ccsc4)C(=O)N[C@@H](Cc4csc5ccccc45)C(=O)N[C@@H](CCC(N)=O)C(N)=O)(C3)NC(=O)[C@H](CC(C)C)NC(=O)[C@H](Cc3ccccc3)NC(=O)[C@H](C)NC(=O)[C@H](C)NC(=O)[C@H](CCC(=O)O)NC(=O)[C@H](CC(=O)O)NC1=O)NC(=O)[C@H](CC(C)(C)C)NC(=O)[C@H](CC(=O)O)NC2=O` (stereo partly drawn) [I-1437, Ac-PL3-Asp-Npg-B5-Asp-Glu-Ala-Ala-Phe-Leu-PyrS2-3Thi-BztA-Gln-NH2], the IC50 in assay [1] (setting [3]) was 7 nM; in assay [2] (setting [4]) it was 7100 nM.
For `CC(=O)N1CCC[C@]12CC=CCCCC1(CCCC=CCCCOC(=O)N3CC[C@@](C(=O)N[C@@H](Cc4ccsc4)C(=O)N[C@@H](Cc4csc5ccccc45)C(=O)N[C@@H](CCC(N)=O)C(N)=O)(C3)NC(=O)[C@H](CC(C)C)NC(=O)[C@H](Cc3ccccc3)NC(=O)[C@H](C)NC(=O)[C@H](C)NC(=O)[C@H](CCCC(=O)O)NC(=O)[C@H](CC(=O)O)NC1=O)NC(=O)[C@H](CC(C)(C)C)NC(=O)[C@H](CC(=O)O)NC2=O` (stereo partly drawn) [I-1438, Ac-PL3-Asp-Npg-B5-Asp-Aad-Ala-Ala-Phe-Leu-PyrS2-3Thi-BztA-Gln-NH2], the figures for the IC50 in assay [1] (setting [3]) and in assay [2] (setting [4]) were 5 nM and 7400 nM, respectively.
`CC(=O)N1CCC[C@]12CC=CCCCC1(CCCC=CCCCOC(=O)N3CC[C@@](C(=O)N[C@@H](Cc4ccsc4)C(=O)N[C@@H](Cc4csc5ccccc45)C(=O)N[C@@H](CCC(N)=O)C(N)=O)(C3)NC(=O)[C@H](CC(C)C)NC(=O)[C@H](Cc3ccccc3)NC(=O)[C@H](C)NC(=O)[C@H](C)NC(=O)[C@H](Cc3c[nH]c4ccccc34)NC(=O)[C@H](CC(=O)O)NC1=O)NC(=O)[C@H](CC(C)(C)C)NC(=O)[C@H](CC(=O)O)NC2=O` (stereo partly drawn) [I-1439, Ac-PL3-Asp-Npg-B5-Asp-Trp-Ala-Ala-Phe-Leu-PyrS2-3Thi-BztA-Gln-NH2]: the results for the IC50 in assay [1] (setting [3]) and in assay [2] (setting [4]) were 349 nM and over 20000 nM, respectively.
